Experimental data: ChEMBL document CHEMBL1201862, “PubChem BioAssay data set” (2004)
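Cultured in 96-well plates, cells were exposed to test compound for 48 hours across five concentrations. Here, GI50 denotes the concentration required for 50% inhibition of growth.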 Activity calls are given as the source filed them. No stated cut-off is given here; in the data, active = GI50 up to about 1.1 µM and inactive = higher.

What was measured:
Experiment in all cases: NCI anticancer screen, dose series, 48 h
PC-3 = test system: PC-3
M19-MEL = test system: M19-MEL
HL-60 = test system: HL-60
UO-31 = test system: UO-31
ACHN = test system: ACHN
HOP-62 = test system: HOP-62
KM12 = test system: KM12
OVCAR-5 = test system: OVCAR-5
IGROV-1 = test system: IGROV-1
M14 = test system: M14
SW-620 = test system: SW-620
MDA-MB-231 = test system: MDA-MB-231
LOX IMVI = test system: LOX IMVI
UACC-62 = test system: UACC-62
NCI-H460 = test system: NCI-H460
COLO 205 = test system: COLO 205
MCF7 = test system: MCF7
SF-539 = test system: SF-539
SK-MEL-5 = test system: SK-MEL-5
SNB-78 = test system: SNB-78

Compound	GI50 (PC-3)	GI50 (M19-MEL)	GI50 (HL-60)	GI50 (UO-31)	GI50 (ACHN)	GI50 (HOP-62)	GI50 (KM12)	GI50 (OVCAR-5)	GI50 (IGROV-1)	GI50 (M14)	GI50 (SW-620)	GI50 (MDA-MB-231)	GI50 (LOX IMVI)	GI50 (UACC-62)	GI50 (NCI-H460)	GI50 (COLO 205)	GI50 (MCF7)	GI50 (SF-539)	GI50 (SK-MEL-5)	GI50 (SNB-78)
CC(=O)O[C@@]12CO[C@@H]1C[C@@H](O)[C@@]1(C)C(=O)[C@H](O)C3=C(C)[C@@H](OC(=O)[C@H](O)[C@@H](NC(=O)c4ccccc4)c4ccccc4)C[C@@](O)([C@@H](OC(=O)c4ccccc4)C12)C3(C)C (stereo not given in full)	0.016 µM (active)	< 0.01 µM (active)	< 0.01 µM (active)	4.51 µM (inactive)	2.77 µM (inactive)	0.0893 µM (active)	< 0.01 µM (active)	0.0832 µM (active)	0.0218 µM (active)	0.0363 µM (active)	< 0.01 µM (active)	0.0408 µM (active)	< 0.0303 µM (active)	< 0.01 µM (active)	0.0217 µM (active)	< 0.01 µM (active)	< 0.01 µM (active)	< 0.0114 µM (active)	–	–
CCCNCC(O)CNc1ccc(NCC(O)CNCCC)c2c1C(=O)c1ccccc1C2=O (stereo not given)	1.95 µM (inactive)	–	2.52 µM (inactive)	12.6 µM (inactive)	8.83 µM (inactive)	1.82 µM (inactive)	3.41 µM (inactive)	1.61 µM (inactive)	2.04 µM (inactive)	3.33 µM (inactive)	2.05 µM (inactive)	2.98 µM (inactive)	1.44 µM (inactive)	1.9 µM (inactive)	2.42 µM (inactive)	2.31 µM (inactive)	2.54 µM (inactive)	1.71 µM (inactive)	2.69 µM (inactive)	–
CSc1nc(SC)c2c(C#N)n[nH]c2n1	–	> 100 µM (inactive)	–	> 100 µM (inactive)	> 100 µM (inactive)	> 100 µM (inactive)	> 100 µM (inactive)	–	> 100 µM (inactive)	> 100 µM (inactive)	> 100 µM (inactive)	–	> 100 µM (inactive)	> 100 µM (inactive)	> 100 µM (inactive)	> 100 µM (inactive)	–	> 100 µM (inactive)	> 100 µM (inactive)	> 100 µM (inactive)
CC1(OCc2ccccc2)C(=O)N2C1NCC2(C)C (stereo not given)	–	> 100 µM (inactive)	> 100 µM (inactive)	86.5 µM (inactive)	> 100 µM (inactive)	> 100 µM (inactive)	–	–	> 100 µM (inactive)	> 100 µM (inactive)	> 100 µM (inactive)	–	> 100 µM (inactive)	> 100 µM (inactive)	> 100 µM (inactive)	> 100 µM (inactive)	–	> 100 µM (inactive)	> 100 µM (inactive)	–
Cc1cc(N(CCC#N)CCC#N)ccc1/C=C\C(=O)Nc1ccccc1	–	36.7 µM (inactive)	26 µM (inactive)	33.5 µM (inactive)	4.43 µM (inactive)	57 µM (inactive)	97.5 µM (inactive)	30.3 µM (inactive)	> 100 µM (inactive)	2.9 µM (inactive)	> 100 µM (inactive)	–	1.26 µM (inactive)	0.931 µM (active)	71.3 µM (inactive)	> 100 µM (inactive)	–	76.7 µM (inactive)	> 100 µM (inactive)	–
O=C(CC(=O)C(=O)Nc1ccccc1)CC(c1ccccc1)c1c(O)c2ccccc2oc1=O (stereo not given)	–	> 100 µM (inactive)	> 100 µM (inactive)	> 100 µM (inactive)	> 100 µM (inactive)	–	> 100 µM (inactive)	> 100 µM (inactive)	> 100 µM (inactive)	> 100 µM (inactive)	> 100 µM (inactive)	–	> 100 µM (inactive)	> 100 µM (inactive)	> 100 µM (inactive)	> 100 µM (inactive)	–	> 100 µM (inactive)	> 100 µM (inactive)	–
C[C@]1(O)O[C@@H]2OCC[C@@H]2C2=C1C(=O)c1ccccc1C2=O	22.1 µM (inactive)	–	12.3 µM (inactive)	17.9 µM (inactive)	17.7 µM (inactive)	12.7 µM (inactive)	14.8 µM (inactive)	17.3 µM (inactive)	14.2 µM (inactive)	11.3 µM (inactive)	18.4 µM (inactive)	21.2 µM (inactive)	11.4 µM (inactive)	19.2 µM (inactive)	16 µM (inactive)	24.9 µM (inactive)	6.46 µM (inactive)	17.3 µM (inactive)	12.4 µM (inactive)	–
COc1cccc(C2c3cc4c(cc3OC3COC(=O)C32)OCO4)c1OC (stereo not given)	> 100 µM (inactive)	–	9.12 µM (inactive)	> 100 µM (inactive)	> 100 µM (inactive)	61.1 µM (inactive)	> 100 µM (inactive)	> 100 µM (inactive)	> 100 µM (inactive)	> 100 µM (inactive)	> 100 µM (inactive)	> 100 µM (inactive)	> 100 µM (inactive)	68.2 µM (inactive)	> 100 µM (inactive)	> 100 µM (inactive)	83 µM (inactive)	> 100 µM (inactive)	> 100 µM (inactive)	–
CCOC(=O)c1c2ccc(/C=C/c3ccccc3)ccc-2c(C(=O)OCC)c1N	–	> 100 µM (inactive)	> 100 µM (inactive)	> 100 µM (inactive)	> 100 µM (inactive)	–	54.6 µM (inactive)	> 100 µM (inactive)	> 100 µM (inactive)	> 100 µM (inactive)	> 100 µM (inactive)	–	> 100 µM (inactive)	73.6 µM (inactive)	> 100 µM (inactive)	> 100 µM (inactive)	–	> 100 µM (inactive)	> 100 µM (inactive)	–
Cc1ccc(C(=O)OC[C@H]2CC[C@@H](n3cc(N(C)C4CCCCC4)c(=O)[nH]c3=O)O2)cc1	29.4 µM (inactive)	–	27.9 µM (inactive)	13.9 µM (inactive)	26.6 µM (inactive)	20.6 µM (inactive)	19.6 µM (inactive)	26.6 µM (inactive)	33.4 µM (inactive)	11 µM (inactive)	40 µM (inactive)	14.9 µM (inactive)	19.1 µM (inactive)	29.7 µM (inactive)	32.7 µM (inactive)	19.1 µM (inactive)	22.1 µM (inactive)	23.8 µM (inactive)	18.8 µM (inactive)	–
O=c1[nH]c(=O)n(C2CC(O)C(CO)O2)cc1OS(=O)(=O)C(F)(F)F (stereo not given)	–	> 100 µM (inactive)	> 100 µM (inactive)	–	> 100 µM (inactive)	> 100 µM (inactive)	> 100 µM (inactive)	> 100 µM (inactive)	> 100 µM (inactive)	> 100 µM (inactive)	> 100 µM (inactive)	–	> 100 µM (inactive)	38.9 µM (inactive)	> 100 µM (inactive)	> 100 µM (inactive)	–	> 100 µM (inactive)	> 100 µM (inactive)	–
CO[C@@]1(c2ccccc2)O[C@H]2OCCC2[C@H]1c1ccc(Cl)cc1 (stereo not given in full)	–	–	–	25.4 µM (inactive)	34 µM (inactive)	40.8 µM (inactive)	47 µM (inactive)	29.1 µM (inactive)	97.7 µM (inactive)	37.6 µM (inactive)	32.7 µM (inactive)	–	32.4 µM (inactive)	34.2 µM (inactive)	23.2 µM (inactive)	20 µM (inactive)	–	51.6 µM (inactive)	17 µM (inactive)	45.1 µM (inactive)
